Assay results taken from US20100298141A1, “SUBSTITUTED PYRIDINE N-OXIDE HERBICIDES” (E. I. DU PONT DE NEMOURS AND COMPANY, priority 2007, published 2010).

Columns and labels:
Experiment in all cases: Test F preemergence test
bermudagrass = type: in vivo, Cynodon dactylon; conditions: scale 0 to 100
Text: (§1) Seeds of plant species selected from bermudagrass (Cynodon dactylon), Surinam grass (Brachiaria decumbens), large crabgrass (Digitaria sanguinalis), green foxtail (Setaria viridis), goosegrass (Eleusine indica), johnsongrass (Sorghum halepense), kochia (Kochia scoparia), pitted morningglory (Ipomoea lacunosa), purple nutsedge (Cyperus rotundus), common ragweed (Ambrosia elation), mustard (Brassica nigra), guineagrass (Panicum maximum), […] (Paspalum dilatatum), barnyardgrass (Echinochloa crus-galli), southern sandbur (Cenchrus echinatus), common sowthistle (Sonchus oleraceous), prickly […] spinosa), Italian ryegrass (Lolium multiflorum), common purslane (Portulaca oleracea), broadleaf signalgrass (Brachiaria platyphylla), common groundsel (Senecio vulgaris), common chickweed (Stellaria media), Virginia dayflower (Commelina virginica), annual bluegrass (Poa annua), naked crabgrass (Digitaria nuda), […] cochinchinensis), quackgrass (Elytrigia repens), Canada horseweed (Conyza canadensis), field bindweed (Convolvulus arvensis), […] (Bidens bipinnata), common mallow (Malva sylvestris), Russian thistle (Salsola kali), and sugarcane (Saccharum officinarum) were planted and treated preemergence with test chemicals formulated in a non-phytotoxic solvent mixture which included a surfactant. At a different time, sugarcane was treated with postemergence applications of some of the test chemicals formulated in the same manner. Plants were approximately 3- to 4-leaf stage for the postemergence treatments. Treated plants and controls were maintained in a greenhouse for 14 to 21 days, after which time all species were compared to controls and visually evaluated. […] A dash (-) response means no test result.

Surinam grass = type: in vivo, Brachiaria decumbens; conditions: scale 0 to 100
Text: as §1

large crabgrass = type: in vivo, Digitaria sanguinalis; conditions: scale 0 to 100
Text: as §1

green foxtail = type: in vivo, Setaria viridis; conditions: scale 0 to 100
Text: as §1

pitted morningglory = type: in vivo, Ipomoea lacunosa; conditions: scale 0 to 100
Text: as §1

common ragweed = type: in vivo, Ambrosia elation; conditions: scale 0 to 100
Text: as §1

mustard = type: in vivo, Brassica nigra; conditions: scale 0 to 100
Text: as §1

guineagrass = type: in vivo, Panicum maximum; conditions: scale 0 to 100
Text: as §1

barnyardgrass = type: in vivo, Echinochloa crus-galli
Text: as §1

southern sandbur = type: in vivo, Cenchrus echinatus; conditions: scale 0 to 100
Text: as §1

prickly sida = type: in vivo, Sida spinosa; conditions: scale 0 to 100
Text: as §1

Italian ryegrass = type: in vivo, Lolium multiflorum; conditions: scale 0 to 100
Text: as §1

common purslane = type: in vivo, Portulaca oleracea; conditions: scale 0 to 100
Text: as §1

annual bluegrass = type: in vivo, Poa annua; conditions: scale 0 to 100
Text: as §1

naked crabgrass = type: in vivo, Digitaria nuda; conditions: scale 0 to 100
Text: as §1

quackgrass = type: in vivo, Elytrigia repens; conditions: scale 0 to 100
Text: as §1

field bindweed = type: in vivo, Convolvulus arvensis; conditions: scale 0 to 100
Text: as §1

common mallow = type: in vivo, Malva sylvestris; conditions: scale 0 to 100
Text: as §1

SMILES: Cc1cc[n+]([O-])c(S(=O)(=O)Cc2c(C(F)(F)F)nn(C)c2OCC(F)(F)F)c1 [Compound 31]
- Plant response rating, Bermudagrass (bermudagrass; 16 g ai/ha, preemergence): 20
- Bermudagrass plant response rating (bermudagrass; 62 g ai/ha, Preemergence): 100
- Bermudagrass plant response rating (bermudagrass; 125 g ai/ha, preemergence): 100
- Plant response rating, Bermudagrass (bermudagrass; Preemergence, 31 g ai/ha): 75
- Plant response rating, Surinam Grass (Surinam grass; 16 g ai/ha, preemergence): 20
- Surinam Grass plant response rating (Surinam grass; 125 g ai/ha, preemergence): 100
- Plant response rating, Surinam Grass (Surinam grass; Preemergence, 62 g ai/ha): 95
- Plant response rating, Surinam Grass (Surinam grass; Preemergence, 31 g ai/ha): 85
- Plant response rating, Crabgrass, Large (large crabgrass; 16 g ai/ha, preemergence): 30
- Crabgrass, Large plant response rating (large crabgrass; 125 g ai/ha, preemergence): 100
- Plant response rating, Crabgrass, Large (large crabgrass; Preemergence, 31 g ai/ha): 95
- Plant response rating, Foxtail, Green (green foxtail; 16 g ai/ha, preemergence): 60
- Foxtail, Green plant response rating (green foxtail; 62 g ai/ha, Preemergence): 100
- Foxtail, Green plant response rating (green foxtail; 125 g ai/ha, preemergence): 100
- Plant response rating, Foxtail, Green (green foxtail; Preemergence, 31 g ai/ha): 95
- Plant response rating, Morningglory (pitted morningglory; 16 g ai/ha, preemergence): 0
- Morningglory plant response rating (pitted morningglory; 62 g ai/ha, Preemergence): 60
- Morningglory plant response rating (pitted morningglory; 125 g ai/ha, preemergence): 98
- Plant response rating, Morningglory (pitted morningglory; Preemergence, 31 g ai/ha): 20
- Plant response rating, Ragweed (common ragweed; 16 g ai/ha, preemergence): 20
- Ragweed plant response rating (common ragweed; 125 g ai/ha, preemergence): 100
- Plant response rating, Ragweed (common ragweed; Preemergence, 62 g ai/ha): 90
- Plant response rating, Ragweed (common ragweed; Preemergence, 31 g ai/ha): 75
- Plant response rating, Black Mustard (mustard; 16 g ai/ha, preemergence): 40
- Black Mustard plant response rating (mustard; 62 g ai/ha, Preemergence): 100
- Black Mustard plant response rating (mustard; 125 g ai/ha, preemergence): 100
- Plant response rating, Black Mustard (mustard; Preemergence, 31 g ai/ha): 95
- Plant response rating, Guineagrass (guineagrass; 16 g ai/ha, preemergence): 80
- Guineagrass plant response rating (guineagrass; 62 g ai/ha, Preemergence): 100
- Guineagrass plant response rating (guineagrass; 125 g ai/ha, preemergence): 100
- Plant response rating, Guineagrass (guineagrass; Preemergence, 31 g ai/ha): 100
- Plant response rating, Barnyardgrass (barnyardgrass; 16 g ai/ha, preemergence, scale 0 to 100 (0 no effect, 100 complete control)): 50
- Barnyardgrass plant response rating (barnyardgrass; 62 g ai/ha, Preemergence, scale 0 to 100): 100
- Barnyardgrass plant response rating (barnyardgrass; 125 g ai/ha, preemergence, scale 0 to 100): 100
- Plant response rating, Barnyardgrass (barnyardgrass; Preemergence, 31 g ai/ha, scale 0 to 100): 95
- Plant response rating, Sandbur (southern sandbur; 16 g ai/ha, preemergence): 40
- Sandbur plant response rating (southern sandbur; 125 g ai/ha, preemergence): 100
- Plant response rating, Sandbur (southern sandbur; Preemergence, 62 g ai/ha): 100
- Plant response rating, Sandbur (southern sandbur; Preemergence, 31 g ai/ha): 90
- Plant response rating, Prickly Sida (prickly sida; 16 g ai/ha, preemergence): 40
- Prickly Sida plant response rating (prickly sida; 62 g ai/ha, Preemergence): 80
- Prickly Sida plant response rating (prickly sida; 125 g ai/ha, preemergence): 100
- Plant response rating, Prickly Sida (prickly sida; Preemergence, 31 g ai/ha): 75
- Plant response rating, Ryegrass, Italian (Italian ryegrass; 16 g ai/ha, preemergence): 50
- Ryegrass, Italian plant response rating (Italian ryegrass; 125 g ai/ha, preemergence): 90
- Plant response rating, Ryegrass, Italian (Italian ryegrass; Preemergence, 62 g ai/ha): 90
- Plant response rating, Ryegrass, Italian (Italian ryegrass; Preemergence, 31 g ai/ha): 90
- Plant response rating, Purslane (common purslane; 16 g ai/ha, preemergence): 25
- Purslane plant response rating (common purslane; 62 g ai/ha, Preemergence): 40
- Purslane plant response rating (common purslane; 125 g ai/ha, preemergence): 65
- Plant response rating, Bluegrass (annual bluegrass; 16 g ai/ha, preemergence): 35
- Bluegrass plant response rating (annual bluegrass; 62 g ai/ha, Preemergence): 75
- Bluegrass plant response rating (annual bluegrass; 125 g ai/ha, preemergence): 90
- Plant response rating, Bluegrass (annual bluegrass; Preemergence, 31 g ai/ha): 65
- Plant response rating, Crabgrass, Naked (naked crabgrass; 16 g ai/ha, preemergence): 75
- Crabgrass, Naked plant response rating (naked crabgrass; 62 g ai/ha, Preemergence): 100
- Crabgrass, Naked plant response rating (naked crabgrass; 125 g ai/ha, preemergence): 100
- Plant response rating, Crabgrass, Naked (naked crabgrass; Preemergence, 31 g ai/ha): 85
- Plant response rating, Quackgrass (quackgrass; 16 g ai/ha, preemergence): 15
- Quackgrass plant response rating (quackgrass; 62 g ai/ha, Preemergence): 75
- Quackgrass plant response rating (quackgrass; 125 g ai/ha, preemergence): 95
- Plant response rating, Quackgrass (quackgrass; Preemergence, 31 g ai/ha): 65
- Plant response rating, Field Bindweed (field bindweed; 16 g ai/ha, preemergence): 0
- Field Bindweed plant response rating (field bindweed; 62 g ai/ha, Preemergence): 40
- Field Bindweed plant response rating (field bindweed; 125 g ai/ha, preemergence): 70
- Plant response rating, Field Bindweed (field bindweed; Preemergence, 31 g ai/ha): 0
- Plant response rating, Mallow (common mallow; 16 g ai/ha, preemergence): 0
- Mallow plant response rating (common mallow; 62 g ai/ha, Preemergence): 100
- Mallow plant response rating (common mallow; 125 g ai/ha, preemergence): 100
- Plant response rating, Mallow (common mallow; Preemergence, 31 g ai/ha): 100
